What was measured:
SETVI [1] = test: greenhouse pre-emergence herbicidal test; assay type: in vivo, Setaria viridis; conditions: pre-emergence method, application rate 1000 g/ha, scale from 0 to 100
Text: (§1) The seeds of the test plants were sown separately for each species. For the pre-emergence treatment, the active ingredients, which had been suspended or emulsified in water, were applied directly after sowing by means of finely distributing nozzles. The containers were irrigated gently to promote germination and growth and subsequently covered with transparent plastic hoods until the plants had rooted. This cover caused uniform germination of the test plants, unless this had been impaired by the active ingredients. Depending on the species, the plants were kept at 10-25° C. or 20-35° C., respectively. The test period extended over 2 to 4 weeks. During this time, the plants were tended, and their response to the individual treatments was evaluated. Evaluation was carried out using a scale from 0 to 100. 100 means no emergence of the plants, or complete destruction of at least the aerial moieties, and 0 means no damage, or normal course of growth. […] The plants used in the greenhouse experiments were of the following species: [table]

AMARE [2] = test: greenhouse pre-emergence herbicidal test; assay type: in vivo, Amaranthus retroflexus; conditions: pre-emergence method, scale from 0 to 100
Text: as §1

APESV [3] = test: greenhouse pre-emergence herbicidal test; assay type: in vivo, Apera spica-venti; conditions: pre-emergence method, scale from 0 to 100
Method in brief: (§2)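 Seeds sown per species; actives suspended or emulsified in water were sprayed through fine nozzles directly after sowing. Pots were watered and hooded until rooted, kept at 10-25° C. or 20-35° C. by species for 2 to 4 weeks, then scored 0-100 (100 = no emergence or complete aerial destruction).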

POLCO [4] = test: greenhouse post-emergence herbicidal test; assay type: in vivo, Polygonum convolvulus; conditions: post-emergence method, scale from 0 to 100
Method in brief: (§3)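 Plants grown to 3 to 15 cm, then sprayed with active ingredient suspended or emulsified in water; kept at 10-25° C. or 20-35° C. by species. Damage scored after 2 to 4 weeks on a 0 to 100 scale, 100 meaning no emergence or complete aerial destruction, 0 normal growth.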

SETVI [5] = test: greenhouse post-emergence herbicidal test; assay type: in vivo, Setaria viridis; conditions: post-emergence method, application rate 500 g/ha, scale from 0 to 100
Text: (§4) The seeds of the test plants were sown separately for each species. For the post-emergence treatment, the test plants were first grown to a height of 3 to 15 cm, depending on the plant habit, and only then treated with the active ingredients which had been suspended or emulsified in water. For this purpose, the test plants were either sown directly and grown in the same containers, or they were first grown separately as seedlings and transplanted into the test containers a few days prior to treatment. Depending on the species, the plants were kept at 10-25° C. or 20-35° C., respectively. The test period extended over 2 to 4 weeks. During this time, the plants were tended, and their response to the individual treatments was evaluated. Evaluation was carried out using a scale from 0 to 100. 100 means no emergence of the plants, or complete destruction of at least the aerial moieties, and 0 means no damage, or normal course of growth. […] The plants used in the greenhouse experiments were of the following species: [table]

ECHCG [6] = test: greenhouse pre-emergence herbicidal test; assay type: in vivo, Echinocloa crus-galli; conditions: pre-emergence method, application rate 500 g/ha, scale from 0 to 100
Method in brief: as §2

LOLMU = test: greenhouse post-emergence herbicidal test; assay type: in vivo, Lolium multiflorum; conditions: post-emergence method, scale from 0 to 100
Text: as §4

AMARE [7] = test: greenhouse post-emergence herbicidal test; assay type: in vivo, Amaranthus retroflexus; conditions: post-emergence method, scale from 0 to 100
Method in brief: as §3

AVEFA [8] = test: greenhouse post-emergence herbicidal test; assay type: in vivo, Avena fatua; conditions: post-emergence method, scale from 0 to 100
Method in brief: as §3

ECHCG [9] = test: greenhouse post-emergence herbicidal test; assay type: in vivo, Echinocloa crus-galli; conditions: post-emergence method, scale from 0 to 100
Method in brief: as §3

POLCO [10] = test: greenhouse pre-emergence herbicidal test; assay type: in vivo, Polygonum convolvulus; conditions: pre-emergence method, application rate 500 g/ha, scale from 0 to 100
Text: as §1

ALOMY = test: greenhouse post-emergence herbicidal test; assay type: in vivo, Alopercurus myosuroides; conditions: post-emergence method, scale from 0 to 100
Method in brief: as §3

AVEFA [11] = test: greenhouse pre-emergence herbicidal test; assay type: in vivo, Avena fatua; conditions: pre-emergence method, application rate 500 g/ha, scale from 0 to 100
Text: as §1

APESV [12] = test: greenhouse post-emergence herbicidal test; assay type: in vivo, Apera spica-venti; conditions: post-emergence method, application rate 500 g/ha, scale from 0 to 100
Text: as §4

ABUTH = test: greenhouse post-emergence herbicidal test; assay type: in vivo, Abutilon theophrasti; conditions: post-emergence method, application rate 1000 g/ha, scale from 0 to 100
Method in brief: as §3

COc1ccccc1-c1cnc(OC(C)C)nc1C(=O)O [example 74] was tested. Which “herbicidal activity against SETVI” value (SETVI [1]) did it give?
The value was “good (A good herbicidal activity is given at values of at least 70)”.

Which “herbicidal activity against AMARE” value (AMARE [2]; application rate 500 g/ha) does the source give for NC(=O)c1nc(C2CC2)ncc1-c1ccccc1Cl [example 288] here?
The value was “very good (a very good herbicidal activity is given at values of at least 85)”.

And the “herbicidal activity against APESV” value (APESV [3]; application rate 500 g/ha)?
The value was “very good (a very good herbicidal activity is given at values of at least 85)”.

What about the “herbicidal activity against POLCO” value (POLCO [4]; application rate 500 g/ha) of the same molecule?
The value was “very good (a very good herbicidal activity is given at values of at least 85)”.

And the “herbicidal activity against SETVI” value (SETVI [5])?
The value was “very good (a very good herbicidal activity is given at values of at least 85)”.

Which results are given for CS(=O)(=O)NC(=O)c1nc(C2CC2)ncc1-c1ccccc1Cl [example 286]?
herbicidal activity against ECHCG (ECHCG [6]): very good (a very good herbicidal activity is given at values of at least 85); herbicidal activity against APESV (APESV [3]; application rate 500 g/ha): very good (a very good herbicidal activity is given at values of at least 85); herbicidal activity against LOLMU (LOLMU; application rate 500 g/ha): very good (a very good herbicidal activity is given at values of at least 85); herbicidal activity against AMARE (AMARE [7]; application rate 500 g/ha): very good (a very good herbicidal activity is given at values of at least 85)

What does the source list for O=C(OCC(F)F)c1nc(C2CC2)ncc1-c1ccccc1Cl [example 257]?
herbicidal activity against AVEFA (AVEFA [8]; application rate 500 g/ha): very good (a very good herbicidal activity is given at values of at least 85); herbicidal activity against ECHCG (ECHCG [9]; application rate 500 g/ha): good (A good herbicidal activity is given at values of at least 70); herbicidal activity against ECHCG (ECHCG [6]): very good (a very good herbicidal activity is given at values of at least 85); herbicidal activity against POLCO (POLCO [10]): very good (a very good herbicidal activity is given at values of at least 85); herbicidal activity against ALOMY (ALOMY; application rate 500 g/ha): very good (a very good herbicidal activity is given at values of at least 85); herbicidal activity against APESV (APESV [3]; application rate 500 g/ha): very good (a very good herbicidal activity is given at values of at least 85)

COC(=O)c1nc(SC)ncc1-c1cc(C)ccc1Cl [example 117] was tested. Which “herbicidal activity against AMARE” value (AMARE [2]; application rate 500 g/ha) did it give?
Its value is “good (A good herbicidal activity is given at values of at least 70)”.

And the “herbicidal activity against ECHCG” value (ECHCG [6])?
Its value is “good (A good herbicidal activity is given at values of at least 70)”.

Which results are given for CN(C)C(=O)c1nc(C2CC2)ncc1-c1ccccc1Cl [example 285]?
herbicidal activity against AMARE (AMARE [2]; application rate 500 g/ha): good (A good herbicidal activity is given at values of at least 70); herbicidal activity against APESV (APESV [3]; application rate 500 g/ha): good (A good herbicidal activity is given at values of at least 70)

Which results are given for C#CCOC(=O)c1nc(C2CC2)ncc1-c1ccccc1Cl [example 256]?
herbicidal activity against AVEFA (AVEFA [8]; application rate 500 g/ha): very good (a very good herbicidal activity is given at values of at least 85); herbicidal activity against ECHCG (ECHCG [9]; application rate 500 g/ha): very good (a very good herbicidal activity is given at values of at least 85); herbicidal activity against AVEFA (AVEFA [11]): very good (a very good herbicidal activity is given at values of at least 85); herbicidal activity against ECHCG (ECHCG [6]): very good (a very good herbicidal activity is given at values of at least 85); herbicidal activity against APESV (APESV [3]; application rate 500 g/ha): very good (a very good herbicidal activity is given at values of at least 85); herbicidal activity against APESV (APESV [12]): very good (a very good herbicidal activity is given at values of at least 85)

Which results are given for Cc1ccccc1-c1cnc(C2CC2)nc1C(=O)O [example 161]?
herbicidal activity against ALOMY (ALOMY; application rate 1000 g/ha): good (A good herbicidal activity is given at values of at least 70); herbicidal activity against APESV (APESV [3]; application rate 1000 g/ha): very good (a very good herbicidal activity is given at values of at least 85); herbicidal activity against POLCO (POLCO [4]; application rate 1000 g/ha): good (A good herbicidal activity is given at values of at least 70); herbicidal activity against LOLMU (LOLMU; application rate 1000 g/ha): good (A good herbicidal activity is given at values of at least 70); herbicidal activity against AMARE (AMARE [7]; application rate 1000 g/ha): good (A good herbicidal activity is given at values of at least 70)

CN(C)S(=O)(=O)NC(=O)c1nc(C2CC2)ncc1-c1ccccc1Cl [example 287] was tested. Which “herbicidal activity against AMARE” value (AMARE [2]; application rate 500 g/ha) did it give?
Its value is “very good (a very good herbicidal activity is given at values of at least 85)”.

And the “herbicidal activity against ECHCG” value (ECHCG [9]; application rate 500 g/ha)?
The value was “very good (a very good herbicidal activity is given at values of at least 85)”.

What about the “herbicidal activity against APESV” value (APESV [3]; application rate 500 g/ha) of the same molecule?
Its value is “very good (a very good herbicidal activity is given at values of at least 85)”.

And the “herbicidal activity against POLCO” value (POLCO [4]; application rate 500 g/ha)?
The value was “very good (a very good herbicidal activity is given at values of at least 85)”.

What about the “herbicidal activity against LOLMU” value (LOLMU; application rate 500 g/ha) of the same molecule?
The value was “very good (a very good herbicidal activity is given at values of at least 85)”.

Which results are given for COC(=O)c1nc(C2CC2)ncc1-c1c(Cl)cc(F)cc1Cl [example 208]?
herbicidal activity against AVEFA (AVEFA [8]; application rate 1000 g/ha): very good (a very good herbicidal activity is given at values of at least 85); herbicidal activity against AMARE (AMARE [2]; application rate 1000 g/ha): good (A good herbicidal activity is given at values of at least 70); herbicidal activity against ALOMY (ALOMY; application rate 1000 g/ha): very good (a very good herbicidal activity is given at values of at least 85); herbicidal activity against APESV (APESV [3]; application rate 1000 g/ha): very good (a very good herbicidal activity is given at values of at least 85)

COC(=O)c1nc(C2CCCO2)ncc1-c1ccccc1C (centres unmarked) [example 276] was tested. Which “herbicidal activity against AMARE” value (AMARE [2]; application rate 1000 g/ha) did it give?
Its value is “very good (a very good herbicidal activity is given at values of at least 85)”.

What about the “herbicidal activity against ABUTH” value (ABUTH) of the same molecule?
The value was “very good (a very good herbicidal activity is given at values of at least 85)”.

What about the “herbicidal activity against AMARE” value (AMARE [7]; application rate 1000 g/ha) of the same molecule?
The value was “very good (a very good herbicidal activity is given at values of at least 85)”.

For CCc1ncc(-c2ccccc2Cl)c(C(=O)O)n1 [example 6], which “herbicidal activity against ECHCG” value (ECHCG [9]; application rate 500 g/ha) is on record?
Its value is “very good (a very good herbicidal activity is given at values of at least 85)”.

And the “herbicidal activity against APESV” value (APESV [3]; application rate 500 g/ha)?
The value was “very good (a very good herbicidal activity is given at values of at least 85)”.

What about the “herbicidal activity against POLCO” value (POLCO [4]; application rate 500 g/ha) of the same molecule?
The value was “very good (a very good herbicidal activity is given at values of at least 85)”.

What about the “herbicidal activity against LOLMU” value (LOLMU; application rate 500 g/ha) of the same molecule?
Its value is “good (A good herbicidal activity is given at values of at least 70)”.

For COC(=O)CCSC(=O)c1nc(C2CC2)ncc1-c1ccccc1Cl [example 307], which “herbicidal activity against AVEFA” value (AVEFA [8]; application rate 250 g/ha) is on record?
Its value is “very good (a very good herbicidal activity is given at values of at least 85)”.

And the “herbicidal activity against ECHCG” value (ECHCG [9]; application rate 250 g/ha)?
Its value is “good (A good herbicidal activity is given at values of at least 70)”.

And the “herbicidal activity against APESV” value (APESV [3]; application rate 250 g/ha)?
The value was “very good (a very good herbicidal activity is given at values of at least 85)”.

And the “herbicidal activity against LOLMU” value (LOLMU; application rate 250 g/ha)?
The value was “very good (a very good herbicidal activity is given at values of at least 85)”.
